In the kinase profiling compilation of Christmann-Franck et al. (2016):
Several values for one entry are separate records, joined by “and”; a condition that tells them apart may be missing. Identical values can stand only once. One block for each compound: values may come before it.

Assays:
Assay in all cases: radiometric filter-binding kinase assay, Kinase HotSpot
Settings in all cases: compound 0.5 µM; ATP 10 µM
SRPK2 (human) = SRPK2 (human) (UniProt P78362)
RPS6KB1 (human) = RPS6KB1 (human) (UniProt P23443)
BMX (human) = BMX (human) (UniProt P51813)
SIK2 (human) = SIK2 (human) (UniProt Q9H0K1)
KDR (human) = KDR (human) (UniProt P35968)
PRKCG (human) = PRKCG (human) (UniProt P05129)
CSK (human) = CSK (human) (UniProt P41240)
DDR2 (human) = DDR2 (human) (UniProt Q16832)
PRKG2 (human) = PRKG2 (human) (UniProt Q13237)
KIT (human) = KIT (human) (UniProt P10721)
PRKX (human) = PRKX (human) (UniProt P51817)
ROS1 (human) = ROS1 (human) (UniProt P08922)
NEK3 (human) = NEK3 (human) (UniProt P51956)
CDC42BPA (human) = CDC42BPA (human) (UniProt Q5VT25)
EPHA2 (human) = EPHA2 (human) (UniProt P29317)
NEK1 (human) = NEK1 (human) (UniProt Q96PY6)
LYN (human) = LYN (human) (UniProt P07948)
NLK (human) = NLK (human) (UniProt Q9UBE8)
PRKCH (human) = PRKCH (human) (UniProt P24723)
EPHA8 (human) = EPHA8 (human) (UniProt P29322)
CDK3 CCNE1 (human) = CDK3 CCNE1 (human) (UniProt Q00526+P24864)
MAP3K5 (human) = MAP3K5 (human) (UniProt Q99683)
GRK4 (human) = GRK4 (human) (UniProt P32298)
GRK7 (human) = GRK7 (human) (UniProt Q8WTQ7)
LCK (human) = LCK (human) (UniProt P06239)
TAOK2 (human) = TAOK2 (human) (UniProt Q9UL54)
MLTK (human) = MLTK (human) (UniProt Q9NYL2)
AKT3 (human) = AKT3 (human) (UniProt Q9Y243)
PRKCD (human) = PRKCD (human) (UniProt Q05655)
CAMK2B (human) = CAMK2B (human) (UniProt Q13554)
BLK (human) = BLK (human) (UniProt P51451)
NUAK1 (human) = NUAK1 (human) (UniProt O60285)
CLK2 (human) = CLK2 (human) (UniProt P49760)
PTK2 (human) = PTK2 (human) (UniProt Q05397)
AKT1 (human) = AKT1 (human) (UniProt P31749)
PDGFRA (human) = PDGFRA (human) (UniProt P16234)
SRMS (human) = SRMS (human) (UniProt Q9H3Y6)
ULK1 (human) = ULK1 (human) (UniProt O75385)
IKBKB (human) = IKBKB (human) (UniProt O14920)
TBK1 (human) = TBK1 (human) (UniProt Q9UHD2)
GRK5 (human) = GRK5 (human) (UniProt P34947)
OXSR1 (human) = OXSR1 (human) (UniProt O95747)

Sequence of TBK1 (human) (Q9UHD2 whole entry, looked up): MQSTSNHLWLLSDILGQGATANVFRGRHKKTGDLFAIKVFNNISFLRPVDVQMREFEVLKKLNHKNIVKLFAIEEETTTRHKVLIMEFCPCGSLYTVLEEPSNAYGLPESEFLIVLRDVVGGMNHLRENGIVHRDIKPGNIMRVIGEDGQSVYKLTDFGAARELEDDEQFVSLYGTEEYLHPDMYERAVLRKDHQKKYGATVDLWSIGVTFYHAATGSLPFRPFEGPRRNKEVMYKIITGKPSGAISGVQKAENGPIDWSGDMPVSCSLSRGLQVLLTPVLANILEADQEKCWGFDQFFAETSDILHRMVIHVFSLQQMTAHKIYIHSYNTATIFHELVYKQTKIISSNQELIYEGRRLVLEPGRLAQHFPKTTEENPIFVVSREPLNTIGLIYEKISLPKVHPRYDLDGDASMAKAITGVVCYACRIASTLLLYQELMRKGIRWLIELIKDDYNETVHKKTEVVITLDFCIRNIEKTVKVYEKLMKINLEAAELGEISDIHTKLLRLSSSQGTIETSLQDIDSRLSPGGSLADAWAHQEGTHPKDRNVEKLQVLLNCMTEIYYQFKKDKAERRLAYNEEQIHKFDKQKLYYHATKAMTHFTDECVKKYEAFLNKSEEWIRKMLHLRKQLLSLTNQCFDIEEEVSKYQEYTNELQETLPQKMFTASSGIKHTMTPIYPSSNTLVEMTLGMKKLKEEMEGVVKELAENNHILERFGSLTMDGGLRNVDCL
Sequence of KIT (human) (P10721 whole entry, looked up): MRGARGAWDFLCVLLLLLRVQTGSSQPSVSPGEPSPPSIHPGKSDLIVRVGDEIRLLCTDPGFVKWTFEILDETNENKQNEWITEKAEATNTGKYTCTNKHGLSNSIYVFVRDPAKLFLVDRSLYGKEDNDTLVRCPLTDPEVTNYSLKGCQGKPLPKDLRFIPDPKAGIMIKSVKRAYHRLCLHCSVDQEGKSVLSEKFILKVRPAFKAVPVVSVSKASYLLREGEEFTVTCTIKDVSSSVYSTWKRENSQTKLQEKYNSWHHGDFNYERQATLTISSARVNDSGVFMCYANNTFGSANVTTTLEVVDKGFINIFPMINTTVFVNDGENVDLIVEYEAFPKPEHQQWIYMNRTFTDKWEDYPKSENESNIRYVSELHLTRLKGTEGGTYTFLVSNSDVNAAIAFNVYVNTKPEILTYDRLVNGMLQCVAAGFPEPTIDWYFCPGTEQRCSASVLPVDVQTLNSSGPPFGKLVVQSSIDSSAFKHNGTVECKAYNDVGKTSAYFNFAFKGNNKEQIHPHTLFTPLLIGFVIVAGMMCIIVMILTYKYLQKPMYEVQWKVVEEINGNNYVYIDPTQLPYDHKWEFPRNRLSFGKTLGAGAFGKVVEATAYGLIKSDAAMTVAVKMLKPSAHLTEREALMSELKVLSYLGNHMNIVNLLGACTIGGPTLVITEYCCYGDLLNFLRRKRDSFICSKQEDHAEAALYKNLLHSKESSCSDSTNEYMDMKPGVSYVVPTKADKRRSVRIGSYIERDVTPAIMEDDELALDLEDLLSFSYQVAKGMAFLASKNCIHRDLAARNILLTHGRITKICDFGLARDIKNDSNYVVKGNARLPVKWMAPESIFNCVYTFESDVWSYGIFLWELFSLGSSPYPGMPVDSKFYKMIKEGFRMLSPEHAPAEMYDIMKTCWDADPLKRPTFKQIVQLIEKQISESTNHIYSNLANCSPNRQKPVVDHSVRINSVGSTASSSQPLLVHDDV
Sequence of CLK2 (human) (P49760 whole entry, looked up): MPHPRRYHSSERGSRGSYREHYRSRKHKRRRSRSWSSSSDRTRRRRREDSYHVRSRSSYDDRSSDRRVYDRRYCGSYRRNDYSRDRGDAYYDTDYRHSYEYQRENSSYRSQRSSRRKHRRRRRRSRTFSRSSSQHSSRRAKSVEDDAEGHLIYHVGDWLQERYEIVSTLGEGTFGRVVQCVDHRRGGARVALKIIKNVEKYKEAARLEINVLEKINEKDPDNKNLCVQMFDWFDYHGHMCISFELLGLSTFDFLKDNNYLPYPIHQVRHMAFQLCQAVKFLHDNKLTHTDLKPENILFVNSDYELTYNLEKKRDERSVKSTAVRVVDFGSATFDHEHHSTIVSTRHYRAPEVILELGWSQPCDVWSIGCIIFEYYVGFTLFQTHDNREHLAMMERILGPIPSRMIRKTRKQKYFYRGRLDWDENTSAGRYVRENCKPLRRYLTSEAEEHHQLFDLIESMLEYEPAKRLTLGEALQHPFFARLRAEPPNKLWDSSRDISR
Sequence of CDC42BPA (human) (Q5VT25 whole entry, looked up): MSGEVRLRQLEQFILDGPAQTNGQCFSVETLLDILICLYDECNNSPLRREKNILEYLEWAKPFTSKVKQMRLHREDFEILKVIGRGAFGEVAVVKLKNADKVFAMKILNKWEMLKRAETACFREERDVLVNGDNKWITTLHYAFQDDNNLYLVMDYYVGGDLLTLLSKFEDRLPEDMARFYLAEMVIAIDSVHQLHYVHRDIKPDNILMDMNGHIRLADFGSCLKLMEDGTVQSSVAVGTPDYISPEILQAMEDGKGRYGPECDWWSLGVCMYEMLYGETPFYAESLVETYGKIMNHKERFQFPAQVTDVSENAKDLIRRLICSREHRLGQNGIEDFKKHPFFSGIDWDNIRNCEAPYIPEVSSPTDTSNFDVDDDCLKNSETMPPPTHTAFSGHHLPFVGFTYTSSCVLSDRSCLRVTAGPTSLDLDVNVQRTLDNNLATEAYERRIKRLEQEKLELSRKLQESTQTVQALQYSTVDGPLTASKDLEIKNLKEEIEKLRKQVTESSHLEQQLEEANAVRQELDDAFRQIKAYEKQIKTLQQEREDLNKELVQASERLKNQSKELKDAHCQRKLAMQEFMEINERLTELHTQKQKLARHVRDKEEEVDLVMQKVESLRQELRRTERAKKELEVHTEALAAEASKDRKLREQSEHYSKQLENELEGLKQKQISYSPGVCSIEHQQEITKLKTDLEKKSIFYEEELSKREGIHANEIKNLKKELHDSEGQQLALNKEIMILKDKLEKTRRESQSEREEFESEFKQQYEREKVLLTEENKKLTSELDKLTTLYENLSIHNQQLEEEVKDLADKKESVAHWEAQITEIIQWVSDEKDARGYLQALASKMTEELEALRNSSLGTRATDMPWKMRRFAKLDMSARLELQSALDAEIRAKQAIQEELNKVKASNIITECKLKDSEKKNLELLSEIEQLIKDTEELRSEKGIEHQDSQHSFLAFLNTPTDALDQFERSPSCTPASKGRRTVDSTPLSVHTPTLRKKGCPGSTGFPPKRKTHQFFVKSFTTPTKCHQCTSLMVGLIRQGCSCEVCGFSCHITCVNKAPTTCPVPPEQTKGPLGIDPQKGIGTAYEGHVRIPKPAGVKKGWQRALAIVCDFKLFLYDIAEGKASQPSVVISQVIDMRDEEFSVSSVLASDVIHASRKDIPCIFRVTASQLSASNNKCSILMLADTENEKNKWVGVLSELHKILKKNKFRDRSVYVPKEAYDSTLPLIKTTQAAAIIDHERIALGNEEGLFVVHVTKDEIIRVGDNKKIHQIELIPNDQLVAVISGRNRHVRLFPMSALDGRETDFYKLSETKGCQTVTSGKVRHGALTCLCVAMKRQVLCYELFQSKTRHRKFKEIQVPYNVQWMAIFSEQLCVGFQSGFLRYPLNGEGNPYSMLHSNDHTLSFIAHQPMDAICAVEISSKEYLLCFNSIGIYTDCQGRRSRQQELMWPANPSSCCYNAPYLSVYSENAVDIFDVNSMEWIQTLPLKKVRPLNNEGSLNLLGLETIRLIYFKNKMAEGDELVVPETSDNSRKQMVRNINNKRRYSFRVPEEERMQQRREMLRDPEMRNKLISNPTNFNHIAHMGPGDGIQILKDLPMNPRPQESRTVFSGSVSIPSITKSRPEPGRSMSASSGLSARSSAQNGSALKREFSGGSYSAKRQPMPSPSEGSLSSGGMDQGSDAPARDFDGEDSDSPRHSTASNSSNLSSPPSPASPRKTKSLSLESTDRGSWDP
Sequence of NUAK1 (human) (O60285 whole entry, looked up): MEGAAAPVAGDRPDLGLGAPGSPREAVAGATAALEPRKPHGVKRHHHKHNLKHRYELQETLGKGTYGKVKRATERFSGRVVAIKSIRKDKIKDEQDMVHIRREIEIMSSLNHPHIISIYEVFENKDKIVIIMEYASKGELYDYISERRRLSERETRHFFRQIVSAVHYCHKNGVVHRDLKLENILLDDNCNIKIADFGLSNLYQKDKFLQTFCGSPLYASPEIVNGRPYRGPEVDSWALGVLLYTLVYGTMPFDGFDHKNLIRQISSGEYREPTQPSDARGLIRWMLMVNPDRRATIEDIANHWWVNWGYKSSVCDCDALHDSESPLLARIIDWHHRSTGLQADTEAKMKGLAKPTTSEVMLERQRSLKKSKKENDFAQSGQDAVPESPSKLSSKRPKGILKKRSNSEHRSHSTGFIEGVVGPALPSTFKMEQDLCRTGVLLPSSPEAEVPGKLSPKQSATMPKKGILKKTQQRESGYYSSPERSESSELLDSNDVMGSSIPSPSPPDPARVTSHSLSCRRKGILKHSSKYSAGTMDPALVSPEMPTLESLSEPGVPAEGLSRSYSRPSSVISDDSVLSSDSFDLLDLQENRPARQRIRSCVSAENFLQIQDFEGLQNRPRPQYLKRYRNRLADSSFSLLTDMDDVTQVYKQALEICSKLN
Sequence of AKT1 (human) (P31749 whole entry, looked up): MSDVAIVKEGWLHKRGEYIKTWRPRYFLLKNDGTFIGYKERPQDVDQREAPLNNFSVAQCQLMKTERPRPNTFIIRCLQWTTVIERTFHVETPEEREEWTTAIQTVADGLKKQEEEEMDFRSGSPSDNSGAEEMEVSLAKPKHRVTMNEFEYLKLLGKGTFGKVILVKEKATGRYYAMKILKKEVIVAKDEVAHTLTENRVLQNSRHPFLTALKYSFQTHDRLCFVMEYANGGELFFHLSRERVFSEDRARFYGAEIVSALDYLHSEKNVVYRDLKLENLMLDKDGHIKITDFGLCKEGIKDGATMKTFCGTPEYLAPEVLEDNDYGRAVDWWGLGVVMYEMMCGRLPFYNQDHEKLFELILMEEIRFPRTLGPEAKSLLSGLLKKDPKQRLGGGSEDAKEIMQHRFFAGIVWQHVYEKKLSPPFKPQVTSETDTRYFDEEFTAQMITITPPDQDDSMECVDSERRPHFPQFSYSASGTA

Compound: COc1ccc(-c2cnc3c(-c4ccsc4)cnn3c2)cc1
residual activity (SRPK2 (human)): 94.1% | residual activity (RPS6KB1 (human)): 92.1% | residual activity (BMX (human)): 90.6% | residual activity (SIK2 (human)): 79.4% | residual activity (KDR (human)): 79.8% | residual activity (PRKCG (human)): 112% | residual activity (CSK (human)): 95.3% | residual activity (DDR2 (human)): 98.2% | residual activity (PRKG2 (human)): 92% | residual activity (KIT (human)): 36.2% | residual activity (PRKX (human)): 89.5% | residual activity (ROS1 (human)): 98.8% | residual activity (NEK3 (human)): 87.7% | residual activity (CDC42BPA (human)): 86.8% | residual activity (EPHA2 (human)): 95.9% | residual activity (NEK1 (human)): 89.4% | residual activity (LYN (human)): 81.8% and 92.7% | residual activity (NLK (human)): 74.5% | residual activity (PRKCH (human)): 111% | residual activity (EPHA8 (human)): 90.3% | residual activity (CDK3 CCNE1 (human)): 84.9% | residual activity (MAP3K5 (human)): 105% | residual activity (GRK4 (human)): 97% | residual activity (GRK7 (human)): 99.9% | residual activity (LCK (human)): 81.6% | residual activity (TAOK2 (human)): 97.4% | residual activity (MLTK (human)): 84.1% | residual activity (AKT3 (human)): 95.4% | residual activity (PRKCD (human)): 98.9% | residual activity (CAMK2B (human)): 88.7% | residual activity (BLK (human)): 83.5% | residual activity (NUAK1 (human)): 77.9% | residual activity (CLK2 (human)): 83.8% | residual activity (PTK2 (human)): 93% | residual activity (AKT1 (human)): 92.4% | residual activity (PDGFRA (human)): 74.8% | residual activity (SRMS (human)): 97.4% | residual activity (ULK1 (human)): 79% | residual activity (IKBKB (human)): 99.6% | residual activity (TBK1 (human)): 77.7% | residual activity (GRK5 (human)): 97.4% | residual activity (OXSR1 (human)): 90.3%

residual activity (SRPK2 (human)): 63.9% | residual activity (RPS6KB1 (human)): 79.6% | residual activity (BMX (human)): 29.2% | residual activity (SIK2 (human)): 31.1% | residual activity (KDR (human)): 64.2% | residual activity (PRKCG (human)): 90.9% | residual activity (CSK (human)): 65.8% | residual activity (DDR2 (human)): 69.7% | residual activity (PRKG2 (human)): 69.1% | residual activity (KIT (human)): 42.3% | residual activity (PRKX (human)): 92.1% | residual activity (ROS1 (human)): 82% | residual activity (NEK3 (human)): 84.4% | residual activity (CDC42BPA (human)): 94% | residual activity (EPHA2 (human)): 70.9% | residual activity (NEK1 (human)): 93.8% | residual activity (LYN (human)): 14.7% and 5.98% | residual activity (NLK (human)): 101% | residual activity (PRKCH (human)): 78.6% | residual activity (EPHA8 (human)): 97.6% | residual activity (CDK3 CCNE1 (human)): 25.2% | residual activity (MAP3K5 (human)): 91.6% | residual activity (GRK4 (human)): 90.1% | residual activity (GRK7 (human)): 96.7% | residual activity (LCK (human)): 39% | residual activity (TAOK2 (human)): 92.1% | residual activity (MLTK (human)): 69% | residual activity (AKT3 (human)): 89.4% | residual activity (PRKCD (human)): 103% | residual activity (CAMK2B (human)): 65.8% | residual activity (BLK (human)): 11.3% | residual activity (NUAK1 (human)): 15.7% | residual activity (CLK2 (human)): 91.9% | residual activity (PTK2 (human)): 89% | residual activity (AKT1 (human)): 97.7% | residual activity (PDGFRA (human)): 68.4% | residual activity (SRMS (human)): 99.6% | residual activity (ULK1 (human)): 95.3% | residual activity (IKBKB (human)): 85.4% | residual activity (TBK1 (human)): 62.1% | residual activity (GRK5 (human)): 125% | residual activity (OXSR1 (human)): 100%
Compound: O=C1Nc2cc(Br)ccc2/C1=C1/Nc2ccccc2/C1=N\O

Compound: CC(C)[C@H](CO)Nc1nc(Nc2cccc(Cl)c2)c2ncn(C(C)C)c2n1
residual activity (SRPK2 (human)): 53.6% | residual activity (RPS6KB1 (human)): 90.8% | residual activity (BMX (human)): 84.3% | residual activity (SIK2 (human)): 92.2% | residual activity (KDR (human)): 95% | residual activity (PRKCG (human)): 98.2% | residual activity (CSK (human)): 98.1% | residual activity (DDR2 (human)): 99.1% | residual activity (PRKG2 (human)): 89.3% | residual activity (KIT (human)): 91% | residual activity (PRKX (human)): 97.4% | residual activity (ROS1 (human)): 88.1% | residual activity (NEK3 (human)): 94.2% | residual activity (CDC42BPA (human)): 92.3% | residual activity (EPHA2 (human)): 89.5% | residual activity (NEK1 (human)): 107% | residual activity (LYN (human)): 60.2% and 82.5% | residual activity (NLK (human)): 99.2% | residual activity (PRKCH (human)): 92.7% | residual activity (EPHA8 (human)): 102% | residual activity (CDK3 CCNE1 (human)): 34.5% | residual activity (MAP3K5 (human)): 108% | residual activity (GRK4 (human)): 91.1% | residual activity (GRK7 (human)): 88.8% | residual activity (LCK (human)): 86.9% | residual activity (TAOK2 (human)): 91.3% | residual activity (MLTK (human)): 108% | residual activity (AKT3 (human)): 102% | residual activity (PRKCD (human)): 104% | residual activity (CAMK2B (human)): 94.3% | residual activity (BLK (human)): 68.8% | residual activity (NUAK1 (human)): 71.1% | residual activity (CLK2 (human)): 21.9% | residual activity (PTK2 (human)): 85.9% | residual activity (AKT1 (human)): 102% | residual activity (PDGFRA (human)): 96.9% | residual activity (SRMS (human)): 104% | residual activity (ULK1 (human)): 67.5% | residual activity (IKBKB (human)): 107% | residual activity (TBK1 (human)): 93% | residual activity (GRK5 (human)): 101% | residual activity (OXSR1 (human)): 94.4%

Compound: Nc1n[nH]c2nnc(-c3c(-c4ccccc4)nn4ccccc34)cc12
residual activity (SRPK2 (human)): 73.8% | residual activity (RPS6KB1 (human)): 97.7% | residual activity (BMX (human)): 84.4% | residual activity (SIK2 (human)): 93.6% | residual activity (KDR (human)): 101% | residual activity (PRKCG (human)): 103% | residual activity (CSK (human)): 98% | residual activity (DDR2 (human)): 101% | residual activity (PRKG2 (human)): 104% | residual activity (KIT (human)): 97.1% | residual activity (PRKX (human)): 101% | residual activity (ROS1 (human)): 80.2% | residual activity (NEK3 (human)): 82.7% | residual activity (CDC42BPA (human)): 89.7% | residual activity (EPHA2 (human)): 98.3% | residual activity (NEK1 (human)): 109% | residual activity (LYN (human)): 94.9% and 97.1% | residual activity (NLK (human)): 102% | residual activity (PRKCH (human)): 77.2% | residual activity (EPHA8 (human)): 100% | residual activity (CDK3 CCNE1 (human)): 96.8% | residual activity (MAP3K5 (human)): 99.3% | residual activity (GRK4 (human)): 103% | residual activity (GRK7 (human)): 96.7% | residual activity (LCK (human)): 95.1% | residual activity (TAOK2 (human)): 101% | residual activity (MLTK (human)): 101% | residual activity (AKT3 (human)): 97.5% | residual activity (PRKCD (human)): 31.2% | residual activity (CAMK2B (human)): 102% | residual activity (BLK (human)): 98.1% | residual activity (NUAK1 (human)): 92.5% | residual activity (CLK2 (human)): 94.9% | residual activity (PTK2 (human)): 99.2% | residual activity (AKT1 (human)): 98% | residual activity (PDGFRA (human)): 99.7% | residual activity (SRMS (human)): 93% | residual activity (ULK1 (human)): 97.1% | residual activity (IKBKB (human)): 115% | residual activity (TBK1 (human)): 100% | residual activity (GRK5 (human)): 106% | residual activity (OXSR1 (human)): 102%
